These compounds were tested against T1, IKZF2 (Homo sapiens, UniProt Q96SW2+Q9UKS7) (assay: HiBiT protein tagging assay, in vitro IKZF2 degradation (HEK293)). Details: IKZF2-HiBiT reporter Flp-In T-REx HEK293 cells, doxycycline-induced, compound overnight (18-24 hr), normalized to DMSO control; read-out: IKZF2 Dmax (maximum degradation at the highest concentration tested).
T1 construct: expressed in transfected cells
Assay type: cell-based
Description: In vitro degradation of IKZF1 and IKZF2 was measured using HiBiT protein tagging and detection technology (Promega).
HiBiT technology (Promega) was used to develop the quantitative assays to measure the cellular IKZFs level by tagging an 11 amino acid HiBit peptides VSGWRLFKKIS (SEQ ID NO:1) to the protein of interest. Reporter plasmids were generated by fusing a linker sequence (GSSGGSSG; SEQ ID NO:2) followed by the HiBiT tag at the C terminus of IKZF1 and IKZF2. The fusion fragments were subsequently cloned into pcDNA5 pcDNA™5/FRT/TO plasmids (Thermo Fisher, cat #V652020) downstream of the Tetracycline operator. The resulting plasmids were co-transfected with pOG44 Flp-Recombinase Expression Vector (Thermo Fisher, cat #V600520) into Flp-In™ T-REx HEK293 line (Thermo Fisher, cat #R78077) and a stable cell pool was selected by adding 100 μg/ml of Hygromycin (Thermo Fisher, cat #10687010). The reporter cell enabled Tet-On inducible reporter expression from a single copy of the integrated gene.
On Day 1, Cells were grown to ˜80% confluency in TC medium (DMEM Glutamax (Gibco10569), 10% Tet free FBS (Takara 631106), and PenStrep Glutamin (Gibco 10378)) in tissue culture flasks. Doxycycline was then added to a final concentration of 1 μg/ml to induce reporter expression at 37° C. overnight.
On Day 2, 125 nL of serially-diluted solution of testing compounds were dispensed into 384-well white solid assay plates via ECHO acoustic liquid handler. Cells were lifted by 0.25% Trypsin (Gibco 25200) then pelleted by centrifugation (Beckman Avanti J-E) at 500×g for 5 min. Cell pellets were resuspended in TC medium at the concentration of 3e5/mL and 25 μL of cell suspension were added into each well of compound-spotted plates. The plates were returned to a 37° C. incubator overnight (18-24 hr).
On Day 3, assay plates were removed from the TC incubator and 25 μL of Nano-Glo lytic detection system (Promega, cat #N3030) was added to each well. Plates were incubated at r.t. for 3 min with shaking, and luminescence was read using an Envision reader (Perkin Elmer).
All raw data was normalized to DMSO control (final concentration: 0.5%) wells as POC and plotted out for EC50 and Dmax (Maximum degradation at the highest concentration tested in the assay).

T1 sequence (Q9UKS7 1-500 isoform Q9UKS7-2): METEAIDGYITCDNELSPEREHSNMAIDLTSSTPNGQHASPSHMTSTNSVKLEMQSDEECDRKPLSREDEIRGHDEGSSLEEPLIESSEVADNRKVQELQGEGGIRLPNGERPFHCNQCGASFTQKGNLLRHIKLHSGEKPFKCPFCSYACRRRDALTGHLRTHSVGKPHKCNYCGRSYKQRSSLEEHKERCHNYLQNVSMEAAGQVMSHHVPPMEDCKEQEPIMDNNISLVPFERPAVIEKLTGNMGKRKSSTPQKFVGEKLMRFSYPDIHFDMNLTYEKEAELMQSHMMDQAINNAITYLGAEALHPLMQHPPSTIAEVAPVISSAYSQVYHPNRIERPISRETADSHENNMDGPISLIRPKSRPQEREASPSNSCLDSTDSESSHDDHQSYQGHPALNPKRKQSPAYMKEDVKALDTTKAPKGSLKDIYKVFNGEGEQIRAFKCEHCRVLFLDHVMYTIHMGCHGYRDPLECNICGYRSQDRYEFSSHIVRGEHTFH
T1 sequence (Q96SW2 whole entry): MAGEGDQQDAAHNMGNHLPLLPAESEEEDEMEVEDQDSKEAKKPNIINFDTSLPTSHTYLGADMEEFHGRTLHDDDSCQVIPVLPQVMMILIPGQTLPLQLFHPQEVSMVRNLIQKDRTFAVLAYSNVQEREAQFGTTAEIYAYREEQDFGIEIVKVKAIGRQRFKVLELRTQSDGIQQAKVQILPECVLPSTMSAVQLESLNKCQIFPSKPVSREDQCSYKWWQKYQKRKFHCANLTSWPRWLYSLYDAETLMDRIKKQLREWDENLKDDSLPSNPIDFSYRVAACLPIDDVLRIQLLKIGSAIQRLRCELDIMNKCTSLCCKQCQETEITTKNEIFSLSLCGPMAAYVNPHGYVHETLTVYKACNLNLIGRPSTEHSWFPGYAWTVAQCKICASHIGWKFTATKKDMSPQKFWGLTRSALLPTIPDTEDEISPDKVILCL
T1 sequence (Q16531 whole entry partner): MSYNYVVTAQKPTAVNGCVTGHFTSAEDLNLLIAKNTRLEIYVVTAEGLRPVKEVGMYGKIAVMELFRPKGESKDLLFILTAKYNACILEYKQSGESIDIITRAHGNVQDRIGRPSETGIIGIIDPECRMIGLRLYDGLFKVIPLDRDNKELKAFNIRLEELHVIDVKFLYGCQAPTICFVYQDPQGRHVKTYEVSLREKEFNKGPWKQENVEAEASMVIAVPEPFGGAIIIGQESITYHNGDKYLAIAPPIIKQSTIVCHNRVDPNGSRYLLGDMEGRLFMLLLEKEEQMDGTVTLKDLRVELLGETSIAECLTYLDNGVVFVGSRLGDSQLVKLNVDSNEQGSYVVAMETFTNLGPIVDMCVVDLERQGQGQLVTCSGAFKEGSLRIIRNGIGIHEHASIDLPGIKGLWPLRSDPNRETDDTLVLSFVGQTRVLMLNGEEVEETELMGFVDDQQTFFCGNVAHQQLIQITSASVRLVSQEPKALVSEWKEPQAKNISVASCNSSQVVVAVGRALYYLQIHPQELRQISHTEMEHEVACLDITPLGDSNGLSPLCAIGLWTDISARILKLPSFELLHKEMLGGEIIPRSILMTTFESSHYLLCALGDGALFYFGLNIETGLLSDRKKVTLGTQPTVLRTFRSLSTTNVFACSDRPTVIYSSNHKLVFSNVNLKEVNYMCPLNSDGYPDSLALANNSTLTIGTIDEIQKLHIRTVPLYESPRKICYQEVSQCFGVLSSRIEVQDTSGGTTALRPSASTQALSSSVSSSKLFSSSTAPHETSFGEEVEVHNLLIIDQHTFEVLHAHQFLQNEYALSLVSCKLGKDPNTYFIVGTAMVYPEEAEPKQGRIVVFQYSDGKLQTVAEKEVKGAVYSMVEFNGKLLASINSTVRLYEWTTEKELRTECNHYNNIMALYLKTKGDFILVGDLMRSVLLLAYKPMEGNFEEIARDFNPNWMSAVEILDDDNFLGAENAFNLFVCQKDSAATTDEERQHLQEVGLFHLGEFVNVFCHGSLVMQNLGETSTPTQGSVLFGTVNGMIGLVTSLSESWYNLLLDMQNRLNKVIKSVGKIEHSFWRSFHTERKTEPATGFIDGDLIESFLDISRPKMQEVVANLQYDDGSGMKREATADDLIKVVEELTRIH

Compound | Dmax [%]
O=C1CCC(N2Cc3cc(OC4CN(Cc5ccccc5)CCC4NCc4ccccc4)ccc3C2=O)C(=O)N1 (racemic) [Example 2] | 94
O=C1CCC(N2Cc3cc(O[C@H]4CN(Cc5ccccc5Cl)CC[C@@H]4NCc4ccccc4)ccc3C2=O)C(=O)N1 (mixture of isomers) [Example 3] | 85
CCN1CCC(NCc2ccccc2)C(Oc2ccc3c(c2)CN(C2CCC(=O)NC2=O)C3=O)C1 (racemic) [Example 4] | 51
CC(C)N1CCC(NCc2ccccc2)C(Oc2ccc3c(c2)CN(C2CCC(=O)NC2=O)C3=O)C1 (racemic) [Example 5] | 47
CC(C)CN1CCC(NCc2ccccc2)C(Oc2ccc3c(c2)CN(C2CCC(=O)NC2=O)C3=O)C1 (racemic) [Example 6] | 35
O=C1CCC(N2Cc3cc(OC4CN(Cc5cccnc5)CCC4NCc4ccccc4)ccc3C2=O)C(=O)N1 (racemic) [Example 7] | 92
O=C1CCC(N2Cc3cc(OC4CN(Cc5ccccn5)CCC4NCc4ccccc4)ccc3C2=O)C(=O)N1 (racemic) [Example 8] | 64
O=C1CCC(N2Cc3cc(OC4CN(Cc5ccncc5)CCC4NCc4ccccc4)ccc3C2=O)C(=O)N1 (racemic) [Example 9] | 87
O=C1CCC(N2Cc3cc(O[C@H]4CN(Cc5ccccc5)CC[C@@H]4NCc4ccccc4Cl)ccc3C2=O)C(=O)N1 (mixture of isomers) [Example 10] | 69
CCN(CC)C1CCN(Cc2ccccc2)CC1Oc1ccc2c(c1)CN(C1CCC(=O)NC1=O)C2=O (racemic) [Example 11] | 90
CCNC1CCN(Cc2ccccc2)CC1Oc1ccc2c(c1)CN(C1CCC(=O)NC1=O)C2=O (racemic) [Example 12] | 97
O=C1CCC(N2Cc3cc(OC4CN(Cc5ccccc5)CCC4NCc4ccccn4)ccc3C2=O)C(=O)N1 (racemic) [Example 13] | 84
O=C1CCC(N2Cc3cc(OC4CN(Cc5ccccc5)CCC4NCc4cccnc4)ccc3C2=O)C(=O)N1 (racemic) [Example 14] | 91
O=C1CCC(N2Cc3cc(OC4CN(Cc5ccccc5)CCC4NCc4ccncc4)ccc3C2=O)C(=O)N1 (racemic) [Example 15] | 73
O=C1CCC(N2Cc3cc(O[C@@H]4CN(C5CC5)CC[C@H]4NCc4ccccc4)ccc3C2=O)C(=O)N1 (mixture of isomers) [Example 16] | 57
O=C1CCC(N2Cc3cc(O[C@H]4CN(Cc5ccccc5F)CC[C@@H]4NCc4ccccc4)ccc3C2=O)C(=O)N1 (mixture of isomers) [Example 17] | 91
O=C1CCC(N2Cc3cc(O[C@H]4CN(Cc5ccc(F)cc5)CC[C@@H]4NCc4ccccc4)ccc3C2=O)C(=O)N1 (mixture of isomers) [Example 18] | 97
O=C1CCC(N2Cc3cc(O[C@H]4CN(Cc5cccc(F)c5)CC[C@@H]4NCc4ccccc4)ccc3C2=O)C(=O)N1 (mixture of isomers) [Example 19] | 89
O=C1CCC(N2Cc3cc(O[C@H]4CN(Cc5cccc(F)c5F)CC[C@@H]4NCc4ccccc4)ccc3C2=O)C(=O)N1 (mixture of isomers) [Example 20] | 86
O=C1CCC(N2Cc3cc(O[C@H]4CN(Cc5ccc(F)cc5F)CC[C@@H]4NCc4ccccc4)ccc3C2=O)C(=O)N1 (mixture of isomers) [Example 21] | 92
O=C1CCC(N2Cc3cc(O[C@H]4CN(Cc5ccc(F)c(F)c5)CC[C@@H]4NCc4ccccc4)ccc3C2=O)C(=O)N1 (mixture of isomers) [Example 22] | 90
O=C1CCC(N2Cc3cc(O[C@H]4CN(Cc5cc(F)ccc5F)CC[C@@H]4NCc4ccccc4)ccc3C2=O)C(=O)N1 (mixture of isomers) [Example 23] | 88
O=C1CCC(N2Cc3cc(O[C@H]4CN(Cc5c(F)cccc5F)CC[C@@H]4NCc4ccccc4)ccc3C2=O)C(=O)N1 (mixture of isomers) [Example 24] | 93
O=C1CCC(N2Cc3cc(O[C@H]4CN(Cc5cc(F)cc(F)c5)CC[C@@H]4NCc4ccccc4)ccc3C2=O)C(=O)N1 (mixture of isomers) [Example 25] | 75
O=C1CCC(N2Cc3cc(O[C@H]4CN(Cc5ccccc5)CC[C@@H]4NCc4ccc(F)cc4)ccc3C2=O)C(=O)N1 (mixture of isomers) [Example 26] | 89

Compound | Dmax [%]
CCNC1CCN(Cc2ccc(F)cc2)CC1Oc1ccc2c(c1)CN(C1CCC(=O)NC1=O)C2=O (racemic) [Example 27] | 92
O=C1CCC(N2Cc3cc(O[C@H]4CN(Cc5ccccc5)CC[C@@H]4NCc4ccccc4F)ccc3C2=O)C(=O)N1 (mixture of isomers) [Example 28] | 90
O=C1CCC(N2Cc3cc(O[C@H]4CN(Cc5ccccc5)CC[C@@H]4NCc4cccc(F)c4)ccc3C2=O)C(=O)N1 (mixture of isomers) [Example 29] | 88
O=C1CCC(N2Cc3cc(O[C@H]4CN(Cc5ccc(Cl)cc5)CC[C@@H]4NCc4ccccc4)ccc3C2=O)C(=O)N1 (mixture of isomers) [Example 30] | 95
O=C1CCC(N2Cc3cc(O[C@H]4CN(Cc5ccc(-c6ccccc6)cc5)CC[C@@H]4NCc4ccccc4)ccc3C2=O)C(=O)N1 (mixture of isomers) [Example 31] | 101
N#Cc1ccc(CN2CC[C@H](NCc3ccccc3)[C@@H](Oc3ccc4c(c3)CN(C3CCC(=O)NC3=O)C4=O)C2)cc1 (mixture of isomers) [Example 32] | 94
COc1ccc(CN2CC[C@H](NCc3ccccc3)[C@@H](Oc3ccc4c(c3)CN(C3CCC(=O)NC3=O)C4=O)C2)cc1 (mixture of isomers) [Example 33] | 94
O=C1CCC(N2Cc3cc(O[C@H]4CN(Cc5ccc(C(F)(F)F)cc5)CC[C@@H]4NCc4ccccc4)ccc3C2=O)C(=O)N1 (mixture of isomers) [Example 34] | 80
O=C1CCC(N2Cc3cc(OC4CN(Cc5ccccc5)CCC4NCCc4ccccc4)ccc3C2=O)C(=O)N1 (racemic) [Example 35] | 98
CC(C)NC1CCN(Cc2ccccc2)CC1Oc1ccc2c(c1)CN(C1CCC(=O)NC1=O)C2=O (racemic) [Example 36] | 98
O=C1CCC(N2Cc3cc(OC4CN(Cc5ccccc5)CCC4NCC4CC4)ccc3C2=O)C(=O)N1 (racemic) [Example 37] | 98
CCN[C@H]1CCN(Cc2ccc(F)cc2F)C[C@@H]1Oc1ccc2c(c1)CN(C1CCC(=O)NC1=O)C2=O (mixture of isomers) [Example 38] | 97
N#CCN1CCC(NCc2ccccc2)C(Oc2ccc3c(c2)CN(C2CCC(=O)NC2=O)C3=O)C1 (racemic) [Example 41] | 28
C[C@@H](c1ccccc1)N1CC[C@H](NCc2ccccc2)[C@@H](Oc2ccc3c(c2)CN(C2CCC(=O)NC2=O)C3=O)C1 (mixture of isomers) [Example 50] | 71
C[C@H](c1ccccc1)N1CC[C@H](NCc2ccccc2)[C@@H](Oc2ccc3c(c2)CN(C2CCC(=O)NC2=O)C3=O)C1 (mixture of isomers) [Example 51] | 57
O=C1CCC(N2Cc3cc(O[C@H]4CN(CCC(F)(F)F)CC[C@@H]4NCc4ccccc4)ccc3C2=O)C(=O)N1 (mixture of isomers) [Example 52] | 27
O=C1CCC(N2Cc3cc(O[C@H]4CN(CCF)CC[C@@H]4NCc4ccccc4)ccc3C2=O)C(=O)N1 (mixture of isomers) [Example 53] | 77
CCNC1CCN(Cc2ccc3ccccc3c2)CC1Oc1ccc2c(c1)CN(C1CCC(=O)NC1=O)C2=O (racemic) [Example 56] | 96
CCN(CC)C1CCN(Cc2ccc3ccccc3c2)CC1Oc1ccc2c(c1)CN(C1CCC(=O)NC1=O)C2=O (racemic) [Example 57] | 98
CCOC1CN(C2CCN(Cc3ccccc3)CC2Oc2ccc3c(c2)CN(C2CCC(=O)NC2=O)C3=O)C1 (racemic) [Example 58] | 96
O=C1CCC(N2Cc3cc(OC4CN(Cc5ccccc5)CCC4NCCF)ccc3C2=O)C(=O)N1 (racemic) [Example 59] | 86
CCNC1CCN(Cc2cccc(-c3ccccc3)c2)CC1Oc1ccc2c(c1)CN(C1CCC(=O)NC1=O)C2=O (racemic) [Example 60] | 83
O=C1CCC(N2Cc3cc(OC4CN(Cc5ccccc5)CCC4N(C4CC4)C4CC4)ccc3C2=O)C(=O)N1 (racemic) [Example 61] | 82
O=C1CCC(N2Cc3cc(OC4CN(Cc5ccccc5)CCC4NC4CC4)ccc3C2=O)C(=O)N1 (racemic) [Example 63] | 94
CN1CC[C@@H](NCc2ccccc2)[C@H](Oc2ccc3c(c2)CN(C2CCC(=O)NC2=O)C3=O)C1 (relative stereo) [Example 1, 3-(5-((trans-4-(benzylamino)-1-methylpiperidin-3-yl)oxy)-1-oxoisoindolin-2-yl)piperidine-2,6-dione] | 53
